According to article PMC8080067, “Tight binding of cytochrome b5 to cytochrome P450 17A1 is a critical feature of stimulation of C21 steroid lyase activity and androgen synthesis” (The Journal of Biological Chemistry, 2021):
Substitutions are numbered along the chain they refer to. Like-named read-outs stand apart in the source and are kept apart here.

Columns and labels:
Assay in all cases: Steady-state kinetics of steroid 17α-hydroxylation and lyase reactions, reconstituted system
WT P450 17A1 = WT P450 17A1 (Homo sapiens, UniProt P05093)
Experimental: (§1) P450 catalytic activity assays to measure steroid hydroxylation and lyase reactions were carried out as described previously ([23], [37], [64]).
(§2) The reactions were initiated by adding an NADPH-regenerating system (final concentrations of 15 mM glucose 6-phosphate, 1.5 mM NADP^+, and 1 IU ml^−1 glucose 6-phosphate dehydrogenase) ([75]) and terminated by quenching and extracting with 2.0 ml CH2Cl2. Aliquots of the organic phases were dried and then dissolved in 100 μl of a CH3CN/H2O (1:1, v/v) mixture. […] The extraction procedure was then repeated, and the (Δ^4) reaction products were analyzed in a Waters Acquity UPLC system using a BEH C18 octadecylsilane column (2.1 mm × 100 mm, 1.7 μm). The reaction products were resolved using a mobile phase composed of solvents A (70% CH3OH, 30% H2O, v/v) and B (CH3CN), at a flow rate of 0.2 ml min^−1. The mobile phase linear gradient proceeded as follows: 0 to 1 min, 5% B; 4 min, 30% B; 4.5 min, 40% B; 4.55 to 6.75 min, 95% BA; and 7 to 10 min, 5% B. The reaction products were identified by coelution with commercial standards and quantified by the A243 peak areas. Steady-state kinetic parameters were estimated using nonlinear regression of hyperbolic fits in GraphPad Prism software, with equations used for kcat and the specificity constant kcat/Km ([76]): Y = (ksp ∗ X)/(1 + (ksp ∗ X/kcat)) and then deriving Km by division.

P450 17A1 R358Q variant = biological target: T1, P450 17A1 R358Q variant (Homo sapiens, UniProt P05093, R358Q)
T1 sequence (P05093 1-508 R358Q): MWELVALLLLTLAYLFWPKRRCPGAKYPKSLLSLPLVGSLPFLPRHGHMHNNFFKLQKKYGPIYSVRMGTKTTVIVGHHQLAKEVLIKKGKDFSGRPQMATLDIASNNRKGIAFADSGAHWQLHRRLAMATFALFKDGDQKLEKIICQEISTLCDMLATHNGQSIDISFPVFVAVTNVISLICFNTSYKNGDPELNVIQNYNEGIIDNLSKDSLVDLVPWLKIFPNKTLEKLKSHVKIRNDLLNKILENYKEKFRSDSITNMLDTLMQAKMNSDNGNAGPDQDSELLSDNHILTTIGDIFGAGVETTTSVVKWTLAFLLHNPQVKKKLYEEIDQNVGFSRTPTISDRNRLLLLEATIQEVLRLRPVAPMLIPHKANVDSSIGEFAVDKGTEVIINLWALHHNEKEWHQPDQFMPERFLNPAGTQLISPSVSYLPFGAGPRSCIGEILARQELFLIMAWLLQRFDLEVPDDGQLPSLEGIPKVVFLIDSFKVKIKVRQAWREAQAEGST
Experimental: as §1
as §2, with “The mobile phase linear gradient proceeded as follows: 0 to 1 min, 5% B; 4 min, 30% B; 4.5 min, 40% B; 4.55 to 6.75 min, 95% BA; and 7 to 10 min, 5% B. The reaction products were identified by coelution with commercial standards and quantified by the A243 peak areas.” left out

P450 17A1 E305G variant = biological target: T2, P450 17A1 E305G variant (Homo sapiens, UniProt P05093, E305G)
T2 sequence (P05093 1-508 E305G): T1 sequence (P05093 1-508 R358Q) with E305G, Q358R
Experimental: as §1
as §2, with “The mobile phase linear gradient proceeded as follows: 0 to 1 min, 5% B; 4 min, 30% B; 4.5 min, 40% B; 4.55 to 6.75 min, 95% BA; and 7 to 10 min, 5% B. The reaction products were identified by coelution with commercial standards and quantified by the A243 peak areas.” left out

P450 17A1 R347H variant = biological target: T3, P450 17A1 R347H variant (Homo sapiens, UniProt P05093, R347H)
T3 sequence (P05093 1-508 R347H): T1 sequence (P05093 1-508 R358Q) with R347H, Q358R
Experimental: as §1
as §2, with “The mobile phase linear gradient proceeded as follows: 0 to 1 min, 5% B; 4 min, 30% B; 4.5 min, 40% B; 4.55 to 6.75 min, 95% BA; and 7 to 10 min, 5% B. The reaction products were identified by coelution with commercial standards and quantified by the A243 peak areas.” left out

[1] = lyase reaction (conversion to androstenedione or DHEA)

Sequence of WT P450 17A1 (P05093 whole entry): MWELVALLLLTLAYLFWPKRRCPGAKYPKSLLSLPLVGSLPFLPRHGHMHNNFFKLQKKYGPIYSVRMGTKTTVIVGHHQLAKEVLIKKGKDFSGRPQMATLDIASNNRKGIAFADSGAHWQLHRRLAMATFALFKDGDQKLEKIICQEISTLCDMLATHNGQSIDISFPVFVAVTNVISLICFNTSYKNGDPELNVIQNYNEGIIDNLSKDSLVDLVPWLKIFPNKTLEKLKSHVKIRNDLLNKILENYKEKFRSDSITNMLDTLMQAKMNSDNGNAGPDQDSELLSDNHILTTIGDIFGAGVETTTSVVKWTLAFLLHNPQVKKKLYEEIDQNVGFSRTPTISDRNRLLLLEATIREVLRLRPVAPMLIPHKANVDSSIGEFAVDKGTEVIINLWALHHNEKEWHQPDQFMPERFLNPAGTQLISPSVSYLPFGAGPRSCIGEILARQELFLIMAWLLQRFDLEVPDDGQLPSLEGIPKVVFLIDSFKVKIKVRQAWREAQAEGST
Sequence of WT P450 17A1 (P00167 whole entry partner): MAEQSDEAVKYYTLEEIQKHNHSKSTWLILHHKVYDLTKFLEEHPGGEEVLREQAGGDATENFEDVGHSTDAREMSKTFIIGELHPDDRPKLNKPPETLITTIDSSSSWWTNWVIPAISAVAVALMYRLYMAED

Compound | % WT (kcat/Km) (WT P450 17A1) [%] | % WT (kcat/Km) (P450 17A1 R358Q variant; 17α-hydroxylation) [%] | % WT (kcat/Km) (P450 17A1 E305G variant; 17α-hydroxylation) [%] | % WT (kcat/Km) (P450 17A1 R347H variant; 17α-hydroxylation) [%] | % WT (kcat/Km) (WT P450 17A1; lyase reaction (conversion to androstenedione or DHEA), WT) [%] | % WT (kcat/Km) (P450 17A1 R358Q variant; [1]) [%] | % WT (kcat/Km) (P450 17A1 E305G variant; [1]) [%] | % WT (kcat/Km) (P450 17A1 R347H variant; [1]) [%]
CC(=O)[C@H]1CC[C@H]2[C@@H]3CCC4=CC(=O)CC[C@]4(C)[C@H]3CC[C@]12C [Progesterone] | 100 | 11 | 8 | 4 | – | – | – | –
CC(=O)[C@@]1(O)CCC2C3CC=C4C[C@@H](O)CC[C@]4(C)C3CC[C@@]21C (stereo partly drawn) [17α-OH pregnenolone] | – | – | – | – | 100 | 0.6 | 0.7 | 1.1
CC(=O)C1CCC2C3CC=C4C[C@@H](O)CC[C@]4(C)C3CC[C@]12C (stereo partly drawn) [Pregnenolone] | 100 | 12 | 0.7 | 19 | – | – | – | –
